Measured values from patent publication US20200239530A1, “COMPOUNDS AND METHODS OF MODULATING PROTEIN DEGRADATION” (Vividion Therapeutics, Inc., priority 2017, published 2020).

Tests used:
Test in all cases: Cysteine liganding, probe competition
Type in all cases: binding
UniProt Q96BF6 = target: T1, UniProt Q96BF6 (Homo sapiens, UniProt Q96BF6); conditions: for inhibition at 100 µM / inhibition at 500 µM: read-out: percent inhibition
T1 construct: Cells were resuspended in cold PBS on ice and sonicated with a probe sonicator to achieve lysis; endogenous in cells
T1 sequence (Q96BF6 1-587): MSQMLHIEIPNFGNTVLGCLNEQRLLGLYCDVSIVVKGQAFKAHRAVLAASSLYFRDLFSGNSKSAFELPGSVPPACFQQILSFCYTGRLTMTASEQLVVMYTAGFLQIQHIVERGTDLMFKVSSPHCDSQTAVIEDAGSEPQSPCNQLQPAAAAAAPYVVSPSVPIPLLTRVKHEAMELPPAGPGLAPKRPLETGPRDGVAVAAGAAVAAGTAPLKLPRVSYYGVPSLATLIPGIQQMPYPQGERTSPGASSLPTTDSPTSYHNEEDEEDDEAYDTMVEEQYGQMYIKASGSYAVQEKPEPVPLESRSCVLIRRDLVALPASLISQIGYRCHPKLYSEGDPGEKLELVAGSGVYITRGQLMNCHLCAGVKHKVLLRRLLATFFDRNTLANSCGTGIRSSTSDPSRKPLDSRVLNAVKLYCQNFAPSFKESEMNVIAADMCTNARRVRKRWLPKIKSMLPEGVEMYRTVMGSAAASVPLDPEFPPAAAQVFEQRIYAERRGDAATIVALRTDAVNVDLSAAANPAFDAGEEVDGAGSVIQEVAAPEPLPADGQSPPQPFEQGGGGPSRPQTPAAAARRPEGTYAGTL
Source text: (§1) The following 96-well sample prep protocol was used for sample preparation.

UniProt Q96EH8 = target: T2, UniProt Q96EH8 (Homo sapiens, UniProt Q96EH8); conditions: for inhibition at 500 µM: read-out: percent inhibition
T2 construct: Cells were resuspended in cold PBS on ice and sonicated with a probe sonicator to achieve lysis; endogenous in cells
T2 sequence (Q96EH8 1-262): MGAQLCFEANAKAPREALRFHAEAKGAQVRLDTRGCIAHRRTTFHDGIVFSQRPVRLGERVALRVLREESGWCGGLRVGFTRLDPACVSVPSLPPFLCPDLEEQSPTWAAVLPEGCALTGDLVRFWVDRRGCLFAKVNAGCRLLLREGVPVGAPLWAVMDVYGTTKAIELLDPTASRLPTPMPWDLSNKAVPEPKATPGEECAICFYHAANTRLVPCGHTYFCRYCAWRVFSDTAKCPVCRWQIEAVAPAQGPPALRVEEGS
Source text: as §1

UniProt O15151 = target: T3, UniProt O15151 (Homo sapiens, UniProt O15151); conditions: for inhibition at 500 µM: read-out: percent inhibition
T3 construct: Cells were resuspended in cold PBS on ice and sonicated with a probe sonicator to achieve lysis; endogenous in cells
T3 sequence (O15151 1-490): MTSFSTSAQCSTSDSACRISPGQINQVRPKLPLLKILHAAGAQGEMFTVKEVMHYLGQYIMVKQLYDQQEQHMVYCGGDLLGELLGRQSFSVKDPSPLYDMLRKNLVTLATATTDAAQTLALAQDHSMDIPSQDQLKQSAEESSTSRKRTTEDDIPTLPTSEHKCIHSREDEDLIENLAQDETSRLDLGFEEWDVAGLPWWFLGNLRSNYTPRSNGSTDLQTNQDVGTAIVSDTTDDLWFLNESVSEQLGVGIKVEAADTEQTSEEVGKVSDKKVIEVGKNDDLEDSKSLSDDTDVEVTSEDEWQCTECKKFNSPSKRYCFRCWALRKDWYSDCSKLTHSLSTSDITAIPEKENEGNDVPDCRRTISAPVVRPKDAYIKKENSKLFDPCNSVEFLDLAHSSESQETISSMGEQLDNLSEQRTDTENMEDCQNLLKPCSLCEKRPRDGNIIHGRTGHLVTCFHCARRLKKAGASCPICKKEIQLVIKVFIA
Source text: as §1

UniProt A1L020 = target: T4, UniProt A1L020 (Homo sapiens, UniProt A1L020)
T4 construct: Cells were resuspended in cold PBS on ice and sonicated with a probe sonicator to achieve lysis; endogenous in cells
Source text: as §1

UniProt Q9HCI7 = target: T5, UniProt Q9HCI7 (Homo sapiens, UniProt Q9HCI7); conditions: for percent inhibition: 100 uM
T5 construct: Cells were resuspended in cold PBS on ice and sonicated with a probe sonicator to achieve lysis; endogenous in cells
T5 sequence (Q9HCI7 1-577): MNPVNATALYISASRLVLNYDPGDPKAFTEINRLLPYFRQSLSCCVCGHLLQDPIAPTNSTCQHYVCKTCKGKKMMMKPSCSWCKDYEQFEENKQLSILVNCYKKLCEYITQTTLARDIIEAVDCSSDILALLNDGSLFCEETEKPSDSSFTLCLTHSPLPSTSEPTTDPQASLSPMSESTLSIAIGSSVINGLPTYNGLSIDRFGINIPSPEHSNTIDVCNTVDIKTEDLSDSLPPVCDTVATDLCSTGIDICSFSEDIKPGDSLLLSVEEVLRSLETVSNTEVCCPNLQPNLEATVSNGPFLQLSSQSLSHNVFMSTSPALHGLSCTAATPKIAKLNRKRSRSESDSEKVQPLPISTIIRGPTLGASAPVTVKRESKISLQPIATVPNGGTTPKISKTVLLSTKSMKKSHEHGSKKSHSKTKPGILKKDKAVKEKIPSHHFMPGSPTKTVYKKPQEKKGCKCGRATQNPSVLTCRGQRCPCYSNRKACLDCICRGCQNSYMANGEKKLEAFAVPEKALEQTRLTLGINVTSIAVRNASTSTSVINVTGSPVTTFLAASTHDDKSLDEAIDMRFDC
Source text: as §1

UniProt Q9HBE1 = target: T6, UniProt Q9HBE1 (Homo sapiens, UniProt Q9HBE1)
T6 construct: Cells were resuspended in cold PBS on ice and sonicated with a probe sonicator to achieve lysis; endogenous in cells
Source text: as §1

UniProt Q8WV22 = target: T7, UniProt Q8WV22 (Homo sapiens, UniProt Q8WV22)
T7 construct: Cells were resuspended in cold PBS on ice and sonicated with a probe sonicator to achieve lysis; endogenous in cells
T7 sequence (Q8WV22 1-266): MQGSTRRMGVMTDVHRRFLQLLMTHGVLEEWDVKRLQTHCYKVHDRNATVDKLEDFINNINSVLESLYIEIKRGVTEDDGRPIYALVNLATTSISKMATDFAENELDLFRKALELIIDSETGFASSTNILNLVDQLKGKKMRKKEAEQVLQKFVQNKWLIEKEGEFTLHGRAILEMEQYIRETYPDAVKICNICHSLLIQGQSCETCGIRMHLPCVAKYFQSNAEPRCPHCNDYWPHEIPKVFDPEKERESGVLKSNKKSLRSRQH
Source text: as §1

UniProt O43164 = target: T8, UniProt O43164 (Homo sapiens, UniProt O43164)
T8 construct: 200 μL of lysate containing 5 mg/ml proteome was treated with 2 μL of 100× compound stock; endogenous in cells
Source text: as §1

[1] = read-out: KB05_100 uM_percent_inhibition

T8 sequence (O43164 whole entry, change not shown): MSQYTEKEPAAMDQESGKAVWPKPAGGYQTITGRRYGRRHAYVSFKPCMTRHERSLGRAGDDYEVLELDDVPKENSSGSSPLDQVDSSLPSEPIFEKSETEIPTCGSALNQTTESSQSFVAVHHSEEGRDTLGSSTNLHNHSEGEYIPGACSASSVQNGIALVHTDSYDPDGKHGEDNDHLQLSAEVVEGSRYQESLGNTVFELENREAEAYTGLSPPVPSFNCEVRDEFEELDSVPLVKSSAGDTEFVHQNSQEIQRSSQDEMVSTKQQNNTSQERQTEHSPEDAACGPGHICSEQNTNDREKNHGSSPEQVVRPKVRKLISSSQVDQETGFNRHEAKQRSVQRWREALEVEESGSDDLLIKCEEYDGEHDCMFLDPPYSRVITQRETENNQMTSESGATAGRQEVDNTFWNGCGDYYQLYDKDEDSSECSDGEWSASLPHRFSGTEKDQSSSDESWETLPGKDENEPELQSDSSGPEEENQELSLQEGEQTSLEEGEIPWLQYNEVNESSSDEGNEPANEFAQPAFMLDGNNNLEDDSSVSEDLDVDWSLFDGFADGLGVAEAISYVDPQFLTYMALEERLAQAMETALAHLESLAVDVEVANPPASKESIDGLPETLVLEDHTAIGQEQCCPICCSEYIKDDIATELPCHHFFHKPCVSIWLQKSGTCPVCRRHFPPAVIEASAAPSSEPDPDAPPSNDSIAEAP
T6 sequence (Q9HBE1 whole entry, change not shown): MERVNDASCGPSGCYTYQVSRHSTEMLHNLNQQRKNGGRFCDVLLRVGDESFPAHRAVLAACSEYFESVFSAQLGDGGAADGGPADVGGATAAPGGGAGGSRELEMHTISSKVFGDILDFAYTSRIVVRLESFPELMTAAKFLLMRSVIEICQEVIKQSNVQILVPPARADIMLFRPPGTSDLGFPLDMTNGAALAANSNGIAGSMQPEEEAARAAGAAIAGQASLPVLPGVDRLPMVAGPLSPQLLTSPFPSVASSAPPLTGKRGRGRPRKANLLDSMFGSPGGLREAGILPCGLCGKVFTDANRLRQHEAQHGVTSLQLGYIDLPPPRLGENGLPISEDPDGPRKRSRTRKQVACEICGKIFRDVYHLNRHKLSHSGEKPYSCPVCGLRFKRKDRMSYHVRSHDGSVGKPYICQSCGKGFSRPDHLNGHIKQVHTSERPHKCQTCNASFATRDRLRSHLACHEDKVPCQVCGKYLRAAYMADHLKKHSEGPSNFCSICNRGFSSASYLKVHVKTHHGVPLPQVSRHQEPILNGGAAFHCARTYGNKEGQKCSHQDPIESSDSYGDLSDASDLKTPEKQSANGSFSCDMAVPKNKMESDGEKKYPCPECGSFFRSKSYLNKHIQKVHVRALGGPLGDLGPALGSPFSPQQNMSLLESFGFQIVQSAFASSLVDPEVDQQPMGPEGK
T4 sequence (A1L020 whole entry, change not shown): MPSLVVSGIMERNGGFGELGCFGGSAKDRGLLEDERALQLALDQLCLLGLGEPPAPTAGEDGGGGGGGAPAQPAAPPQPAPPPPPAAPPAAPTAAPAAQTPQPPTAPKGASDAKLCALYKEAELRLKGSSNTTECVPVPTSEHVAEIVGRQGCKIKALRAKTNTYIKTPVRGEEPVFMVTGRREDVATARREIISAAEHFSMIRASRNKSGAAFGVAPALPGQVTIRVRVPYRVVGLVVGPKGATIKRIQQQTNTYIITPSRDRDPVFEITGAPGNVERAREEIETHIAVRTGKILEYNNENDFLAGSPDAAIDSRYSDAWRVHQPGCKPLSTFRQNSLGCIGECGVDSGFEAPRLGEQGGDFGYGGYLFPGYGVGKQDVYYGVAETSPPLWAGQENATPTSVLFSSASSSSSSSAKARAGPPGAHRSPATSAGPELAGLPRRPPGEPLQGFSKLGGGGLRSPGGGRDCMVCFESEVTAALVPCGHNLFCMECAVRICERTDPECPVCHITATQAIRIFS

inhibition at 100 µM (UniProt A1L020; read-out: percent inhibition) [%]	inhibition at 100 µM (UniProt Q9HCI7; read-out: percent inhibition) [%]	inhibition at 100 µM (UniProt Q9HBE1; [1]) [%]	inhibition at 100 µM (UniProt Q8WV22; 100 uM, read-out: KB05_100 uM_percent_inhibition) [%]	KB05_500 uM_percent_inhibition (UniProt Q8WV22; 500 uM) [%]	inhibition at 500 µM (UniProt Q8WV22; 500 uM, read-out: KB05_500 uM_percent_inhibition) [%]	inhibition at 100 µM (UniProt O43164; [1]) [%]	percent inhibition (UniProt O15151; 500 uM) [%]	SMILES	percent inhibition (UniProt Q96BF6; 100 uM) [%]	inhibition at 100 µM (UniProt Q96BF6; 100 uM) [%]	percent inhibition (UniProt Q96BF6; 500 uM) [%]	inhibition at 500 µM (UniProt Q96BF6; 500 uM) [%]	percent inhibition (UniProt Q96EH8; 500 uM) [%]	inhibition at 500 µM (UniProt Q96EH8) [%]	inhibition at 500 µM (UniProt O15151) [%]	percent inhibition (UniProt Q9HCI7) [%]	percent inhibition (UniProt A1L020; 100 uM) [%]	KB03_100 uM_percent_inhibition (UniProt Q9HBE1; 100 uM) [%]	KB03_100 uM_percent_inhibition (UniProt Q8WV22; 100 uM) [%]	KB03_100 uM_percent_inhibition (UniProt O43164; 100 uM) [%]
–	–	–	–	–	–	–	–	COc1ccc2c(c1)CCCN2C(=O)CCl [KB02]	32	38	32	46	54	40	29	–	–	–	–	–
19	15	45	13	66	64	1	41	C=CC(=O)N(c1ccccc1)c1ccc(Br)cc1 [KB05]	–	25	56	47	–	44	55	11	–	–	–	–
–	–	–	–	–	–	–	–	O=C(CCl)Nc1cc(C(F)(F)F)cc(C(F)(F)F)c1 [KBO3]	–	–	–	–	–	–	–	49	52	72	2	22
